Test results from publication PMC9745799, “Polymyxin Stereochemistry and Its Role in Antibacterial Activity and Outer Membrane Disruption” (ACS Infectious Diseases, 2022).
≈ marks a conversion by molar mass, not a printed value. Where “and” joins values, the source holds several entries; their conditions need not be identical. Equal values may be shown once. Positions of bridges follow the written chain, without caps; N, C: chain ends. Non-standard residues stand in square brackets, D forms with d. Residues, ends and D or L forms follow the SMILES beside them. *: point of attachment. dDab = NCC[C@@H](N)C(=O)O; Heptanoyl = CCCCCCC(=O)*

Experiments:
[1] = system: A. baumannii ATCC 19606; type: cell-based; settings: A. baumannii ATCC 19606
Method: (§1) MICs of compounds were determined following CLSI guidelines using the microbroth dilution method in polypropylene plates. Selected Gram-negative bacterial strains (see Table S2 for strain sources) were taken from glycerol stocks and grown overnight on blood agar. Individual colonies were selected and grown in Tryptic Soy Broth (TSB) to an OD600 of 0.5. Compounds were diluted in Mueller Hinton Broth (MHB) supplemented with Mg^2+ and Ca^2+ at final concentrations of 12 and 20 mg/L, respectively (CAMHB). 50 μL was used for each well, and compounds were assessed in triplicates. Bacterial culture was diluted in CAMHB to 10^6 CFU/mL, yielding 5 × 10^5 CFU/mL upon addition of 50 μL of culture to 50 μL of compound solution. Positive and negative (sterility) controls were present on each plate. Plates were sealed with a semipermeable membrane and incubated for 22 h (A. baumannii) or 18 h (other strains) under shaking at 37 °C.

[2] = system: E. coli ATCC 25922; type: cell-based; settings: E. coli ATCC 25922
Method: as §1

[3] = system: E. coli BW25113; type: cell-based; settings: E. coli BW25113; CLSI microbroth dilution, CAMHB, 18 h, 37 °C, triplicate
Method: as §1

[4] = system: E. coli JW3594 (ΔwaaD); type: cell-based; settings: truncated LPS, CLSI microbroth dilution, CAMHB, 18 h, 37 °C, triplicate
Method: as §1

[5] = system: E. coli JW3596 (ΔwaaC); type: cell-based; settings: truncated LPS, CLSI microbroth dilution, CAMHB, 18 h, 37 °C, triplicate
Method: as §1

[6] = system: E. coli mcr-1; type: cell-based; settings: CLSI microbroth dilution, CAMHB, 18 h, 37 °C, triplicate
Method: as §1

[7] = system: K. pneumoniae ATCC 13883; type: cell-based; settings: K. pneumoniae ATCC 13883
Method: as §1

[8] = system: P. aeruginosa 2018-007; type: cell-based; settings: P. aeruginosa 2018-007; CLSI microbroth dilution, CAMHB, 18 h, 37 °C, triplicate
Method: as §1

[9] = system: P. aeruginosa ATCC 10145; type: cell-based; settings: P. aeruginosa ATCC 10145
Method: as §1

[10] = system: P. aeruginosa ATCC 27853; type: cell-based; settings: P. aeruginosa ATCC 27853; CLSI microbroth dilution, CAMHB, 18 h, 37 °C, triplicate
Method: as §1

[11] = system: P. aeruginosa NRZ03961; type: cell-based; settings: P. aeruginosa NRZ03961; CLSI microbroth dilution, CAMHB, 18 h, 37 °C, triplicate
Method: as §1

[12] = system: polymyxin-resistant (mcr-1 positive) E. coli; experiment: microbe, parasite or virus in culture; type: cell-based; settings: E. coli mcr-1, checkerboard
Method: (§2) Selected Gram-negative bacterial strains were taken from glycerol stocks and grown overnight on blood agar. A single colony was inoculated in TSB broth at 37 °C until an optical density of 0.5 at 600 nm (OD600) was reached. The bacterial suspension was diluted in freshly prepared CAMHB to 10^6 CFU/mL. Compounds were diluted along the plate, using 25 μL of CAMHB for each dilution. Antibiotic concentrations were prepared separately in a multiwell reservoir, including a control without antibiotic. Of each antibiotic stock, 25 μL was added to three columns to obtain triplicates for every condition. To each 50 μL containing well was then added 50 μL of the 10^6 CFU/mL bacterial suspension, and the plates were sealed with breathable seals. After incubation for 18 h at 37 °C while shaking, the seals were removed and the density of the bacterial suspensions was measured at 600 nm (OD600) using a Tecan Spark plate reader. The OD600 values were transformed to a 2D gradient with the negative control as the minimum and the positive control as the maximum. The FICI was calculated using the following equation: [drawing 1] with MSCant and MSCcomp indicating the optimal synergistic concentration of antibiotic and compound and MICant and MICcomp, the corresponding MICs of the individual compounds. An FICI ≤ 0.5 indicates synergy.[48]

[13] = system: polymyxin-sensitive E. coli ATCC 25922; experiment: microbe, parasite or virus in culture; type: cell-based; settings: E. coli ATCC 25922
Method: as §2

[14] = system: LPS from E. coli (O55:B5); experiment: Isothermal titration calorimetry (ITC), LPS binding; settings: compound (1 mM) into LPS (20 µM), 20 mM HEPES pH 7, 37 °C, mean and SD of three experiments
Method: Stock solutions of LPS (10 mg/mL, 0.5 mM) were prepared in 20 mM HEPES at pH 7 by suspension, sonication, and temperature cycling between 4 and 60 °C and stored overnight prior to use. LPS from E. coli (O55:B5) was used. Lipopeptide solutions (1 mM in 20 mM HEPES, pH 7) were titrated into a suspension of LPS (0.020 mM) in the same buffer. Control titrations included the titration of peptide into buffer and buffer into the LPS suspension to determine the corresponding heat of dilution. All binding experiments were performed using a MicroCal PEAQ-ITC Automated microcalorimeter (Malvern Panalytical Ltd., Malvern, UK). The samples were equilibrated to 37 °C prior to measurement. The titrations were conducted at 37 °C under constant stirring at 750 rpm. Each experiment consisted of an initial injection of 0.3 μL followed by 25 separate injections of 1.5 μL into the sample cell of 200 μL. The time between each injection was 180 s, and the measurements were performed with the reference power set at 5 μcal s^–1 and the feedback mode set at “low”. For all calculations performed, an estimated molecular weight of 20 kDa for LPS was applied. The calorimetric data thus obtained were analyzed using MicroCal PEAQ-ITC Analysis Software Version 1.20 (Malvern Panalytical Ltd., Malvern, UK), where the integrated heat signal is corrected for the heat of dilution of the titrant.

[15] = CLSI microbroth dilution, CAMHB, 18 h, 37 °C, triplicate

CCCCCCC(=O)N[C@H](CCN)C(=O)N[C@@H](C(=O)N[C@H](CCN)C(=O)N[C@@H]1CCNC(=O)[C@@H]([C@H](C)O)NC(=O)[C@@H](CCN)NC(=O)[C@@H](CCN)NC(=O)[C@@H](CC(C)C)NC(=O)[C@H](Cc2ccccc2)NC(=O)[C@@H](CCN)NC1=O)[C@H](C)O [ent-PmxB4] (Heptanoyl-[dDab][dT][dDab][dDab][dDab]F[dL][dDab][dDab][dT]; lactam 4-C)
MIC in presence of PMBN ([1]; + PMBN (8 ug/mL)): > 128 µg/mL | MIC in presence of SPR741 ([1]; + SPR741 (8 ug/mL)): > 128 µg/mL | MIC ([1]; CLSI microbroth dilution, CAMHB, 22 h, 37 °C, triplicate): >128 µg/mL | MIC in presence of PMBN ([2]; + PMBN (8 ug/mL)): 128 µg/mL | MIC in presence of SPR741 ([2]; + SPR741 (8 ug/mL)): 128 µg/mL | MIC [3]: >128 µg/mL | MIC [4]: 128 µg/mL (≈ 109 µM) | MIC [5]: 128 µg/mL (≈ 109 µM) | MIC [6]: 128 µg/mL (≈ 109 µM) | MIC in presence of PMBN ([7]; + PMBN (8 ug/mL)): > 128 µg/mL | MIC in presence of SPR741 ([7]; + SPR741 (8 ug/mL)): > 128 µg/mL | MIC [7, 15]: >128 µg/mL | MIC [8]: >128 µg/mL | MIC in presence of PMBN ([9]; + PMBN (8 ug/mL)): > 128 µg/mL | MIC in presence of SPR741 ([9]; + SPR741 (8 ug/mL)): > 128 µg/mL | MIC [9, 15]: >128 µg/mL | MIC [10]: >128 µg/mL | MIC [11]: >128 µg/mL | MIC alone ([12]; substance alone): 128 µg/mL | FICI ([12]; combination with rifampicin, CAMHB, 18 h, 37 °C, OD600, FICI ≤ 0.5 indicates synergy): 0.19 and 0.188 | MIC alone ([13]; checkerboard, substance alone): 128 µg/mL | MIC in combination ([13]; compound in combination with rifampicin, optimal synergistic concentration): 8 µg/mL | ΔΔH, maximum enthalpy observed after subtraction of dilution control [14]: -3.485 kcal/mol
